Results on eight compounds are retold here after patent US20220370416A1, “COMPOUNDS AND METHODS FOR TARGETED DEGRADATION OF KRAS” (Arvinas Operations, Inc., priority 2020, published 2022).

The target in assay [1] is T1, HiBit-KRAS^G12C (Homo sapiens, UniProt P01116, G12C). Kind of assay: HiBit degradation assay in MiaPaCa-2 HiBit-KRas^G12C cells. The class given is cell-based. To be noted: 24 hours; for Dmax: maximum degradation; for DC50: read-out: KRas^G12C-HiBiT (MiaPaCa; 0.5% DMSO) IC50. Put shortly:
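MiaPaCa-2 cells with CRISPR N-terminal HiBit knock-in on one endogenous KRAS^G12C allele, treated 24 hours at 37° C with compound titrated 10 μM to 20 nM (0.1% or 0.5% DMSO). Lytic HiBit luminescence normalized to DMSO, 4-parameter fit giving DC50 and Dmax; points cytotoxic to […] cells by alamar blue excluded.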
(The HiBiT peptide binds its large partner to form an active luciferase.)

The target in assay [2] is T1, HiBit-KRAS^G12C. The assay can be described thus: HiBit degradation assay in SW1573 HiBit-KRas^G12C cells. Type of assay: cell-based. Also noted: expressed in transfected cells; host or cells: SW1573 (clone E6), modified pcDNA3.1 vector, TK promoter. Conditions: 24 hours. Put shortly: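 SW1573 cells stably expressing N-terminally HiBit-tagged KRAS G12C, under the TK promoter, were treated 24 h at 37 °C with 10 μM to 20 nM compound in 0.1% or 0.5% DMSO. Residual HiBit luminescence normalised to DMSO and fitted with a 4-parameter model for DC50 and Dmax. Points with ≥50% viability loss (alamar blue) excluded.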

Setting [3] is: MIA PaCa-2, MiaPaCa-2 HiBit-KRas^G12C cells, 0.5% DMSO, read-out: KRas^G12C-HiBiT (MiaPaCa; 0.5% DMSO) DMax.
Where [4] appears, read: MiaPaCa-2 HiBit-KRas^G12C cells, 0.5% DMSO.
Setting [5] is: SW1573, SW1573 HiBit-KRas^G12C, 0.5% DMSO, read-out: KRas^G12C-HiBiT (SW1573; 0.5% DMSO) Dmax**.
Setting [6] is: read-out: KRas^G12C-HiBiT (SW1573; 0.5% DMSO) IC50***, SW1573 HiBit-KRas^G12C, 0.5% DMSO.
The mark [7] stands for this setting: MIA PaCa-2, MiaPaCa-2 HiBit-KRas^G12C cells, 0.1% DMSO, read-out: KRas^G12C-HiBiT (MiaPaCa; 0.1% DMSO) DMax.
Where [8] appears, read: SW1573, SW1573 HiBit-KRas^G12C, 0.1% DMSO, read-out: KRas^G12C-HiBit (SW1573; 0.1% DMSO) Dmax**.
[9] abbreviates: SW1573 HiBit-KRas^G12C, 0.1% DMSO, read-out: KRas^G12C-HIBit (SW1573; 0.1% DMSO) DC50*.

SMILES strings stand for the structures. Where only a bound is given, the exact number is not on record here.

T1 sequence (P01116 1-186 isoform P01116-2 G12C limits assumed): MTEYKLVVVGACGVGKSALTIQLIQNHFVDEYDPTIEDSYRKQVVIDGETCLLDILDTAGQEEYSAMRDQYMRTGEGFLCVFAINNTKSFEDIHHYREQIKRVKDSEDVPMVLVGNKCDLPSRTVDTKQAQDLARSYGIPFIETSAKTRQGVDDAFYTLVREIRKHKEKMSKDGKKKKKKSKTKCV

On to `C=CC(=O)N1CCN(c2nc(OCCN3CCC(COCC(=O)N[C@H](C(=O)N4C[C@H](O)C[C@H]4C(=O)N[C@@H](C)c4ccc(-c5ccnn5C)cc4)C(C)(C)C)CC3)nc3c(F)c(-c4cc(O)cc5ccccc45)c(Cl)cc23)C[C@@H]1CC#N` (atropisomer, axis not shown) [Compound 136, (2S,4R)-1-[(2S)-2-[2-({1-[2-({6-chloro-4-[(3S)-3-(cyanomethyl)-4-(prop-2-enoyl)piperazin-1-yl]-8-fluoro-7-(3-hydroxynaphthalen-1-yl)quinazolin-2-yl}oxy)ethyl]piperidin-4-yl}methoxy)acetamido]-3,3-dimethylbutanoyl]-4-hydroxy-N-[(1S)-1-[4-(1-methyl-1H-pyrazol-5-yl)phenyl]ethyl]pyrrolidine-2-carboxamide], for which the Dmax at HiBit-KRAS^G12C [1] (setting [3]) and at HiBit-KRAS^G12C [2] (setting [5]) was above 70% each time. The DC50 on HiBit-KRAS^G12C [1] (setting [4]) and on HiBit-KRAS^G12C [2] (setting [6]) was 0.1 to 1 µM each time.
For `C=CC(=O)N1CCN(c2nc(OCCN3CCC4(CC3)CN(c3cc([C@@H](C(=O)N5C[C@H](O)C[C@H]5C(=O)N[C@@H](C)c5ccc(-c6scnc6C)cc5)C(C)C)on3)C4)nc3c(F)c(-c4cc(O)cc5ccccc45)c(Cl)cc23)C[C@@H]1CC#N` [Compound 137, (2S,4R)-1-[(2S)-2-(3-{7-[2-({6-chloro-4-[(3S)-3-(cyanomethyl)-4-(prop-2-enoyl)piperazin-1-yl]-8-fluoro-7-(3-hydroxynaphthalen-1-yl)quinazolin-2-yl}oxy)ethyl]-2,7-diazaspiro[3.5]nonan-2-yl}-1,2-oxazol-5-yl)-3-methylbutanoyl]-4-hydroxy-N-[(1S)-1-[4-(4-methyl-1,3-thiazol-5-yl)phenyl]ethyl]pyrrolidine-2-carboxamide], the DC50 at HiBit-KRAS^G12C [1] (setting [4]) is above 1 µM; on HiBit-KRAS^G12C [2] (setting [6]), 0.1 to 1 µM. On HiBit-KRAS^G12C [2] (setting [5]), the Dmax was below 35%.
Regarding `C=CC(=O)N1CCN(c2nc(O[C@@H](C)CN3CCC(OCCOCC(=O)N[C@H](C(=O)N4C[C@H](O)C[C@H]4C(=O)N[C@@H](C)c4ccc(-c5scnc5C)cc4)C(C)(C)C)CC3)nc3c(F)c(-c4cc(O)cc5ccccc45)c(Cl)cc23)CC1` [Compound 67, (2S,4R)-1-[(2S)-2-{2-[2-({1-[(2S)-2-{[6-chloro-8-fluoro-7-(3-hydroxynaphthalen-1-yl)-4-[4-(prop-2-enoyl)piperazin-1-yl]quinazolin-2-yl]oxy}propyl]piperidin-4-yl}oxy)ethoxy]acetamido}-3,3-dimethylbutanoyl]-4-hydroxy-N-[(1S)-1-[4-(4-methyl-1,3-thiazol-5-yl)phenyl]ethyl]pyrrolidine-2-carboxamide], the Dmax on HiBit-KRAS^G12C [1] (setting [7]), at HiBit-KRAS^G12C [1] (setting [3]), on HiBit-KRAS^G12C [2] (setting [8]) and on HiBit-KRAS^G12C [2] (setting [5]) was 35 to 70% each time. Also, the DC50 at HiBit-KRAS^G12C [2] (setting [9]) is 0.1 to 1 µM.
Regarding `C=CC(=O)N1CCN(c2nc(O[C@H](C)CN3CCC(OCCOCC(=O)N[C@H](C(=O)N4C[C@H](O)C[C@H]4C(=O)N[C@@H](C)c4ccc(-c5scnc5C)cc4)C(C)(C)C)CC3)nc3c2CCN(c2cc(O)cc4ccccc24)C3)C[C@@H]1CC#N` [Compound 31, (2S,4R)-1-[(2S)-2-{2-[2-({1-[(2R)-2-({4-[(3S)-3-(cyanomethyl)-4-(prop-2-enoyl)piperazin-1-yl]-7-(3-hydroxynaphthalen-1-yl)-5H,6H,7H,8H-pyrido[3,4-d]pyrimidin-2-yl}oxy)propyl]piperidin-4-yl}oxy)ethoxy]acetamido}-3,3-dimethylbutanoyl]-4-hydroxy-N-[(1S)-1-[4-(4-methyl-1,3-thiazol-5-yl)phenyl]ethyl]pyrrolidine-2-carboxamide], the Dmax at HiBit-KRAS^G12C [1] (setting [7]) was below 35%; at HiBit-KRAS^G12C [1] (setting [3]), below 35%; on HiBit-KRAS^G12C [2] (setting [8]), 35 to 70%; on HiBit-KRAS^G12C [2] (setting [5]), 35 to 70%. Moreover, the DC50 on HiBit-KRAS^G12C [2] (setting [9]) was above 1 µM.
As for `C=CC(=O)N1CCN(c2nc(OCCN3CCC(COCC(=O)N[C@H](C(=O)N4C[C@H](O)C[C@H]4C(=O)N[C@@H](C)c4ccc(-c5scnc5C)cc4)C(C)(C)C)CC3)nc3c(F)c(-c4nc(N)cc(C)c4C(F)(F)F)c(Cl)cc23)C[C@@H]1CC#N` [Compound 115, (2S,4R)-1-[(2S)-2-[2-({1-[2-({7-[6-amino-4-methyl-3-(trifluoromethyl)pyridin-2-yl]-6-chloro-4-[(3S)-3-(cyanomethyl)-4-(prop-2-enoyl)piperazin-1-yl]-8-fluoroquinazolin-2-yl}oxy)ethyl]piperidin-4-yl}methoxy)acetamido]-3,3-dimethylbutanoyl]-4-hydroxy-N-[(1S)-1-[4-(4-methyl-1,3-thiazol-5-yl)phenyl]ethyl]pyrrolidine-2-carboxamide], the Dmax on HiBit-KRAS^G12C [1] (setting [3]) and at HiBit-KRAS^G12C [2] (setting [5]) was above 70% each time. Besides, the DC50 on HiBit-KRAS^G12C [1] (setting [4]) and at HiBit-KRAS^G12C [2] (setting [6]) was 0.1 to 1 µM throughout.
Take `C=CC(=O)N1CCN(c2nc(OCCN3CCC(COCC(=O)N[C@H](C(=O)N4C[C@H](O)C[C@H]4C(=O)N[C@@H](C)c4ccc(-c5scnc5C)cc4)C(C)(C)C)CC3)nc3c(F)c(-c4nc(NC)cc(C)c4C(F)(F)F)c(Cl)cc23)C[C@@H]1CC#N` [Compound 98, (2S,4R)-1-[(2S)-2-[2-({1-[2-({6-chloro-4-[(3S)-3-(cyanomethyl)-4-(prop-2-enoyl)piperazin-1-yl]-8-fluoro-7-[4-methyl-6-(methylamino)-3-(trifluoromethyl)pyridin-2-yl]quinazolin-2-yl}oxy)ethyl]piperidin-4-yl}methoxy)acetamido]-3,3-dimethylbutanoyl]-4-hydroxy-N-[(1S)-1-[4-(4-methyl-1,3-thiazol-5-yl)phenyl]ethyl]pyrrolidine-2-carboxamide]: the Dmax at HiBit-KRAS^G12C [1] (setting [3]) and at HiBit-KRAS^G12C [2] (setting [5]) was above 70% each time. Also, the DC50 at HiBit-KRAS^G12C [1] (setting [4]) and on HiBit-KRAS^G12C [2] (setting [6]) was 0.1 to 1 µM each time.
For the compound `C=CC(=O)N1CCN(c2nc(OCCN3CCC(CN(C)CC(=O)N[C@H](C(=O)N4C[C@H](O)C[C@H]4C(=O)N[C@@H](C)c4ccc(-c5scnc5C)cc4)C(C)(C)C)CC3)nc3c(F)c(-c4cc(O)cc5ccccc45)c(Cl)cc23)C[C@@H]1CC#N` [Compound 148, (2S,4R)-1-[(2S)-2-{2-[({1-[2-({6-chloro-4-[(3S)-3-(cyanomethyl)-4-(prop-2-enoyl)piperazin-1-yl]-8-fluoro-7-(3-hydroxynaphthalen-1-yl)quinazolin-2-yl}oxy)ethyl]piperidin-4-yl}methyl)(methyl)amino]acetamido}-3,3-dimethylbutanoyl]-4-hydroxy-N-[(1S)-1-[4-(4-methyl-1,3-thiazol-5-yl)phenyl]ethyl]pyrrolidine-2-carboxamide], the Dmax lay within 35 to 70% on HiBit-KRAS^G12C [1] (MIA PaCa-2, read-out: KRas^G12C-HiBiT (MiaPaCa; 0.5% DMSO) DMax, MiaPaCa-2 HiBit-KRas^G12C cells, 0.5% DMSO) and 35 to 70% at HiBit-KRAS^G12C [2] (SW1573, read-out: KRas^G12C-HiBiT (SW1573; 0.5% DMSO) Dmax**, SW1573 HiBit-KRas^G12C, 0.5% DMSO). Moreover, the DC50 at HiBit-KRAS^G12C [1] (setting [4]) and on HiBit-KRAS^G12C [2] (setting [6]) was 0.1 to 1 µM each time.
Regarding `C=CC(=O)N1CCN(c2nc(OCCN3CC[C@@H](COCC(=O)N[C@H](C(=O)N4C[C@H](O)C[C@H]4C(=O)N[C@@H](C)c4ccc(-c5scnc5C)cc4)C(C)(C)C)C3)nc3c(F)c(-c4cc(O)cc5ccccc45)c(Cl)cc23)C[C@@H]1CC#N` [Compound 140, (2S,4R)-1-[(2S)-2-(2-{[(3R)-1-[2-({6-chloro-4-[(3S)-3-(cyanomethyl)-4-(prop-2-enoyl)piperazin-1-yl]-8-fluoro-7-(3-hydroxynaphthalen-1-yl)quinazolin-2-yl}oxy)ethyl]pyrrolidin-3-yl]methoxy}acetamido)-3,3-dimethylbutanoyl]-4-hydroxy-N-[(1S)-1-[4-(4-methyl-1,3-thiazol-5-yl)phenyl]ethyl]pyrrolidine-2-carboxamide], the Dmax on HiBit-KRAS^G12C [1] (setting [3]) and on HiBit-KRAS^G12C [2] (setting [5]) was 35 to 70% in each case. For the same compound, the DC50 at HiBit-KRAS^G12C [1] (setting [4]) was above 1 µM; at HiBit-KRAS^G12C [2] (setting [6]) it was 0.1 to 1 µM.
